Results as given in patent US20060024658A1, “Composition and methods for evaluating an organism's response to alcohol or stimulants” (priority 1998, published 2006).
Read-outs that look alike come from different tables or passages of the source.

Legend:
noradrenergic receptors = conditions: in vivo; cited from earlier work
SH-SY5Y cells [1] = assay: Effect of dexamethasone and db-cAMP on expression of DBH, NET, DLK and MCP-1; assay type: cell-based, human; conditions: 1 mM; data not shown
Description: Previous studies have shown that neuroblastoma cells derived from the neural crest could differentiate either towards a more neuronal phenotype in the presence of retinoic acid, or a chromaffin-like phenotype in the presence of glucocorticoids or dibutyryl-cyclic AMP (db-cAMP). […] Therefore, we tested the effect of dexamethasone and db-cAMP on the expression of our 4 candidate genes.

[2] = ethanol administration; cited from earlier work
[3] = test system: human neuroblastoma SH-SY5Y cells; assay: Oligonucleotide array (Affymetrix GeneChip Hu6800) gene expression profile after ethanol; conditions: 72 h
[4] = test system: DBH protein in SH-SY5Y cells
Experimental: (§1) The relative amount of DBH protein between whole cell homogenates of control and ethanol-treated cells was determined by Western blot analysis following standard protocols using a polyclonal antibody (Calbiochem). MCP-1 production was monitored in the culture media of cells treated in the absence or presence of ethanol using the Quantikine MCP-1 immunoassay from R&D System.

[5] = test system: MCP-1 release from SH-SY5Y cells; conditions: ethanol-treated cells; FIG. 4C
Experimental: as §1

SH-SY5Y cells [6] = conditions: 150 mM ethanol, 3 days, media from last 24 h, n=3; control 0.957+/−0.49
Experimental: All HPLC apparatus was from ESA, Inc. (Chelmsford, Mass.). Following precipitation with 0.1 M perchloric acid and centrifugation over a 5000 MW cut-off centrifugal filter, culture media (10 μl aliquot) was injected onto an ESA HR-80 column (C-18, 4.6 mm×8 cm, 3 um particle size) using a Model 540 refrigerated autosampler injector and a Model 580 solvent delivery pump. […] Eluents were detected at a flow rate of 1.0 ml/min using a Model 5011 analytical cell with palladium reference electrode, a Model 5020 guard cell, and a Model 5200A Coulochem II electrochemical detector. Electrode settings were +350 mV for the guard cell, −100 mV for the pre-oxidation electrode, and +280 mV for the detection electrode. Samples were analyzed at 5 nA sensitivity and compared with a two-point monoamine standard calibration curve at 1 and 5 pg/μl using the Model 501 analysis software package.

[7] = test system: DBH mRNA in adrenal glands and brain; conditions: versus saline
Experimental: Animal studies were conducted on female DBA/2 mice (Simonsen Laboratories, Gilroy, Calif.) weighing 20-30 g at 8 weeks of age. All animals were housed individually under a 12:12 light-dark cycle at 22° C. and given ad libitum access to food and water before and after injection procedures. […] Adrenal glands were dissected out, immediately frozen into liquid nitrogen and stored at −80° C. until needed.
Aliquot of ss cDNA were then used in comparative PCR. […] We performed duplex reaction using GAPDH as an endogenous amplification standard. PCR conditions were optimized so that the amplification of both, GAPDH and DBH cDNAs were in the exponential phase.

SH-SY5Y cells [8] = test system: SH-SY5Y cells
Description: RNA blots were probed with ^32P-labeled inserts of human DBH, NET, DLK and MCP-1 cDNAs. Probes were synthesized by RT-PCR using SH-SY5Y total RNA as template. […] Human GAPDH cDNA probe (Clonetech) was used as an internal control for total RNA normalization.

SHSY-5Y cells = assay: Effects of alcohols on gene expression (array hybridization intensity) in SHSY-5Y cells, Study 1; assay type: cell-based, human; conditions: for Co-Activ increase in hybridization / MAP4 increase in hybridization / Na/H Anti increase in hybridization / ZNFP increase in hybridization: 50 mM alcohol, early (2 hour) response, FIG. 2B; for DBH hybridization intensity over baseline / DLK hybridization intensity over baseline / GABA-β3 hybridization intensity over baseline / NPTX2 hybridization intensity over baseline / PDGFR hybridization intensity over baseline / PTK hybridization intensity over baseline: FIG. 2A
Description: Hybridization strength is given a baseline of 1 and increased intensity is expressed in as a multiple of the baseline, i.e., 2-fold, 3-fold, 4-fold etc.
Column 1 lists the presumed functional class of the gene.
Columns are similar to Table 8.

[9] = 50, 100, 150 mM ethanol, FIG. 3B

Structure (SMILES): Clc1cccc(Cl)c1N=C1NCCN1 [clonidine]
- ethanol withdrawal syndrome (noradrenergic receptors): strongly reduce ethanol withdrawal syndrome

Structure (SMILES): CCCC(=O)Nc1ncnc2c1ncn2[C@@H]1O[C@@H]2COP(=O)(O)O[C@H]2[C@H]1OC(=O)CCC [db-cAMP, dibutyryl-cyclic AMP]
- time after treatment at which effects were significant (SH-SY5Y cells [1]): ≤ 24 h

Structure (SMILES): CCO [ethanol]
- plasma norepinephrine levels [2]: dose-dependent elevation
- E100, change in expression of ARHGDIB (L20688) ([3]; 100 mM ethanol): −0.7
- E100, change in expression of CPE (X51405) ([3]; 100 mM ethanol): 1.2
- E100, change in expression of DBH (X13255) ([3]; 100 mM ethanol): 5.4
- E100, change in expression of DLK1 (T49117) ([3]; 100 mM ethanol): 2.9
- E100, change in expression of DUSP4 (U21108) ([3]; 100 mM ethanol): 0.9
- E100, change in expression of E2-28.4 (EST) (R01227) ([3]; 100 mM ethanol): 1
- E100, change in expression of EGFR (H02836) ([3]; 100 mM ethanol): 1
- E100, change in expression of EST H08637 (NF1) ([3]; 100 mM ethanol): 0.9
- E100, change in expression of EST R47985 (Acrosin) ([3]; 100 mM ethanol): −1.3
- E100, change in expression of EST R60751 (IEP2) ([3]; 100 mM ethanol): −0.8
- E100, change in expression of EST R73461 (TCRbeta) ([3]; 100 mM ethanol): −3.7
- E100, change in expression of EST T94087 (JNK2) ([3]; 100 mM ethanol): 1
- E100, change in expression of FKHL1 (R60332) ([3]; 100 mM ethanol): −0.9
- E100, change in expression of GCH1 (U19523) ([3]; 100 mM ethanol): 1.6
- E100, change in expression of GLRX (X76648) ([3]; 100 mM ethanol): 1.4
- E100, change in expression of GPI-H (L19783) ([3]; 100 mM ethanol): −0.6
- E100, change in expression of GSTM4 (M99422) ([3]; 100 mM ethanol): 0.9
- E100, change in expression of HIRH (H14506) ([3]; 100 mM ethanol): −1
- E100, change in expression of IL7 (J04156) ([3]; 100 mM ethanol): −0.7
- E100, change in expression of KRT18 (T53412) ([3]; 100 mM ethanol): −2.3
- E100, change in expression of LUM (U21128) ([3]; 100 mM ethanol): 1.6
- E100, change in expression of MCP1 (M26683) ([3]; 100 mM ethanol): −1.9
- E100, change in expression of MGP (H52207) ([3]; 100 mM ethanol): −0.7
- E100, change in expression of NAIP (U19251) ([3]; 100 mM ethanol): 0.9
- E100, change in expression of NEF3 (Y00067) ([3]; 100 mM ethanol): 1.4
- E100, change in expression of NFIB2/3 (H91713) ([3]; 100 mM ethanol): 2.1
- E100, change in expression of NP (T47964) ([3]; 100 mM ethanol): 0.5
- E100, change in expression of NPTX2 (U29195) ([3]; 100 mM ethanol): 0.9
- E100, change in expression of NSMAF (R41765) ([3]; 100 mM ethanol): 1.1
- E100, change in expression of PGY1 (M29447) ([3]; 100 mM ethanol): 2.3
- E100, change in expression of PMSCL2 (R40490) ([3]; 100 mM ethanol): 0.7
- E100, change in expression of PRHX (X67235) ([3]; 100 mM ethanol): 1
- E100, change in expression of RAC2 (H42477) ([3]; 100 mM ethanol): −0.9
- E100, change in expression of RPL14 (R82938) ([3]; 100 mM ethanol): −0.5
- E100, change in expression of SLC6A2(NET) (M65105) ([3]; 100 mM ethanol): 2.6
- E100, change in expression of SOX9 (Z46629) ([3]; 100 mM ethanol): −1.2
- E100, change in expression of SPARC (T54767) ([3]; 100 mM ethanol): −1.3
- E100, change in expression of SSH3BP1 (R34245) ([3]; 100 mM ethanol): 0.7
- E100, change in expression of TMPO (U09086) ([3]; 100 mM ethanol): 1
- E100, change in expression of TP53 (X54156) ([3]; 100 mM ethanol): −1.1
- E100, change in expression of ZNF42 (R83364) ([3]; 100 mM ethanol): −1.9
- DBH mRNA levels, dose dependence [3, 9]: changed in a dose-dependent manner
- DLK, NET and MCP-1 gene expression, dose dependence [3, 9]: showed a dose-response
- expression of gene encoding α7 subunit of the neuronal acetylcholine receptor (nAChRα7) ([3]; 100 mM ethanol, FIG. 3A): downregulated
- DBH protein expression ([4]; 150 mM ethanol for 72 h, FIG. 4B): enhancement in DBH protein expression
- duration of increase in DBH protein levels ([4]; continued presence of ethanol, data not shown): sustained up to 7 days treatment
- MCP-1 peptide release in the culture media [5]: decrease in peptide release
- NE levels in the media (SH-SY5Y cells [6]): 23.554+/−5.218 ng/mg of protein
- DBH mRNA levels in the brain ([7]; 6 or 24 h after single dose 4 g/kg i.p., data not shown): No difference in expression
- DBH mRNA levels in the adrenal ([7]; 6 h after single dose 4 g/kg i.p., data not shown): No difference in expression
- DBH mRNA levels in the adrenal ([7]; 24 h after single dose 4 g/kg i.p., FIG. 5): significant increase
- DBH, DLK and NET mRNA levels (SH-SY5Y cells [8]; 3 days treatment, FIG. 4A): increase
- MCP-1 transcript levels (SH-SY5Y cells [8]; 3 days treatment, FIG. 4A): decrease
- time after addition at which changes in expression were detected (SH-SY5Y cells [8]; DBH, DLK, NET, MCP-1, data not shown): ≤ 24 h
- Co-Activ increase in hybridization (SHSY-5Y cells): 4 fold
- MAP4 increase in hybridization (SHSY-5Y cells): 3 fold
- Na/H Anti increase in hybridization (SHSY-5Y cells): ~6 fold
- ZNFP increase in hybridization (SHSY-5Y cells): 7.5 fold
- DBH hybridization intensity over baseline (SHSY-5Y cells; 50 mM ethanol): 3 fold
- DLK hybridization intensity over baseline (SHSY-5Y cells; 50 mM ethanol, baseline = 1): just over the baseline
- GABA-β3 hybridization intensity over baseline (SHSY-5Y cells; 50 mM ethanol, baseline = 1): just over the baseline
- NPTX2 hybridization intensity over baseline (SHSY-5Y cells; 50 mM ethanol, baseline = 1): just over the baseline
- PDGFR hybridization intensity over baseline (SHSY-5Y cells; 50 mM ethanol, baseline = 1): just over the baseline
- PTK hybridization intensity over baseline (SHSY-5Y cells; 50 mM ethanol, baseline = 1): just over the baseline
- DBH hybridization intensity over baseline (SHSY-5Y cells; 100 mM ethanol): 5 fold
- DLK hybridization intensity over baseline (SHSY-5Y cells; 100 mM ethanol): 3 fold
- GABA-β3 hybridization intensity over baseline (SHSY-5Y cells; 100 mM ethanol): around 2 fold
- NPTX2 hybridization intensity over baseline (SHSY-5Y cells; 100 mM ethanol): around 2 fold
- PDGFR hybridization intensity over baseline (SHSY-5Y cells; 100 mM ethanol): 3 fold
- PTK hybridization intensity over baseline (SHSY-5Y cells; 100 mM ethanol): 3 fold
- DBH hybridization intensity over baseline (SHSY-5Y cells; 150 mM ethanol): ~9 fold
- DLK hybridization intensity over baseline (SHSY-5Y cells; 150 mM ethanol): ~7 fold
- GABA-β3 hybridization intensity over baseline (SHSY-5Y cells; 150 mM ethanol): 2 fold
- NPTX2 hybridization intensity over baseline (SHSY-5Y cells; 150 mM ethanol): 2 fold
- PDGFR hybridization intensity over baseline (SHSY-5Y cells; 150 mM ethanol): 5 fold
- PTK hybridization intensity over baseline (SHSY-5Y cells; 150 mM ethanol): 2 fold

Structure (SMILES): CO [methanol, reference compound]
- Co-Activ increase in hybridization (SHSY-5Y cells): 1.5 fold
- MAP4 increase in hybridization (SHSY-5Y cells): > 2 fold
- Na/H Anti increase in hybridization (SHSY-5Y cells): 1.5 fold
- ZNFP increase in hybridization (SHSY-5Y cells): 1.5 fold

Structure (SMILES): CCCO [propanol, reference compound]
- Co-Activ increase in hybridization (SHSY-5Y cells): > 6.5 fold
- MAP4 increase in hybridization (SHSY-5Y cells): 4 fold
- Na/H Anti increase in hybridization (SHSY-5Y cells): 6.5 fold
- ZNFP increase in hybridization (SHSY-5Y cells): > 6 fold
